# Key:
# Assay type in all cases: cell-based
# [1] = system: EGFR; assay: EGFR kinase inhibitor treatment, with or without EGF: Kaiso expression levels and nuclear staining
# Protocol: Next, steps were taken to determine if EGFR signaling was involved in increasing Kaiso levels and/or cytoplasmic to nuclear trans-localization of Kaiso. All three cell lines were treated with EGF (10 ng/ml) over increasing time intervals of 30 minutes, 1 hour, and 24 hours. […] To determine the specificity of EGFR activity on Kaiso expression levels, an EGFR specific kinase inhibitor, PD153035, was also utilized in the presence or absence of EGF treatment.
# [2] = system: Kaiso; assay: EGF treatment: Kaiso mRNA and protein levels by real-time RT-PCR and immunoblot
# Protocol: Unless otherwise herein described, growth factors, such as recombinant human epidermal growth factor (“EGF”), were obtained commercially and was added to serum free media of DMEM and T-media with antibiotics.
# Since EGFR over-expressing DU-145WT cells express higher levels of Kaiso than the original DU-145 cells, experiments were further conducted to determine if EGFR signaling would have a direct effect on Kaiso localization and/or expression in prostate cancer cells. As an initial experiment, a dose dependent treatment of EGF consisting of 10, 50 and 100 ng/ml was performed.
# [3] = system: Kaiso; assay: EGF treatment: Kaiso nuclear localization by immunofluorescence and subcellular fractionation; conditions: EGF 10 ng/ml; from 30 minutes to 24 hour; immunofluorescence; DU-145, DU-145WT, PC-3
# Protocol: Unless otherwise set forth herein, immunofluorescence studies comprised plating cells on a 4-chamber slide with 20000 cells. After treatment, they were then washed with PBS, fixed for 30 minutes with cold methanol at room temperature, incubated at room temperature with Lysis Buffer containing 0.1 M Tris, 0.15M NaCl, 0.01 M EGTA, 1% Triton and 1 mM PMSF, blocked for 30 mins in 5% BSA dissolved in PBS, treated with primary antibody (1:100) overnight in the cold room. Cells were stained for p120^ctn and Kaiso.
# Next, steps were taken to determine if EGFR signaling was involved in increasing Kaiso levels and/or cytoplasmic to nuclear trans-localization of Kaiso. All three cell lines were treated with EGF (10 ng/ml) over increasing time intervals of 30 minutes, 1 hour, and 24 hours. […] A key finding within DU-145 cells that lack nuclear Kaiso expression was the observation of a predominant Kaiso nuclear staining. […] To determine the specificity of EGFR activity on Kaiso expression levels, an EGFR specific kinase inhibitor, PD153035, was also utilized in the presence or absence of EGF treatment.
# [4] = system: p120^ctn; assay: EGF stimulation: p120ctn tyrosine residues Y228, Y96, Y291; conditions: after 24 hours, DU-145 and DU-145WT
# Protocol: Previous reports have observed that p120^ctn has a specific kinase activity for EGFR on tyrosine residue Y228. Additionally, p120^ctn is a known binding partner for Kaiso. Therefore, experiments were conducted determine whether this was apparent in prostate cancer cell lines as well. Given that p120^ctn has multiple tyrosine residues, including Y228, Y96, Y291, located within the regulator domain, the effect of EGF stimulation on each of these residues was studied. […] It was observed by immunofluorescence that Y228 expression remained cytosolic after 24 hours of EGF treatment.
Kaiso expression levels ([1]; 500 nM),nuclear Kaiso staining ([1]; DU-145 and PC-3 cells),"EGF induced increases in Kaiso levels ([1]; pre-treatment before EGF, DU-145 and PC-3 cells)",Compound,"increase in Kaiso mRNA and protein levels ([2]; EGF 10 ng/ml (lowest of 10, 50, 100 ng/ml), real-time RT-PCR and immunoblot)","Kaiso increases ([2]; EGF 10 ng/ml, 24 hour period, EGFR over-expressing DU145WT cells)","Kaiso increases at RNA and protein levels ([2]; EGF 10 ng/ml, over 24 hour period, DU-145 and PC-3 cells)",nuclear accumulation of Kaiso [3],expression of p120ctn Y228 (versus Y96 and Y291) [4]
significantly reduced,lack of nuclear Kaiso staining,completely blocked,COc1cc2ncnc(Nc3cccc(Br)c3)c2cc1OC [PD153035],–,–,–,–,–
–,–,–,"EGF: recombinant human epidermal growth factor, obtained commercially",At least a two-fold increase,4 fold,incremental Kaiso increases,Visible nuclear accumulation of Kaiso,induced the specific increased expression of Y228
